Values quoted from earlier work, collected in patent publication US5516904A, “Acetylenes disubstituted with a heteroaromatic group and a substituted phenyl group having retinoid like activity” (Allergan, Inc., priority 1995, dated 1996).

System: ornithine decarboxylase (ODC)
Details: result in words; literature background

SMILES: CC1=C(/C=C/C(C)=C/C=C/C(C)=C/C(=O)O)C(C)(C)CCC1 [Retionic acid, retinoic acid]
- inhibition of induction of ODC activity by TPA: inhibits
